Test results as given in ChEMBL document CHEMBL3885861, “Open TG-GATES”.

Species on record: Rattus norvegicus
Assay: Open TG-GATES - Regimen: Daily Repeat
Format: toxicity, organism-based, Sprague-Dawley
Parameters: regimen Daily Repeat, gender Male, age 6 weeks
Settings: in vivo, po, 100 mg/kg, route gavage, dose level High; for APTT / Bas / Eos / Fbg / Hb / Ht / Lym / MCH / MCHC / MCV / Mono / Neu / PT / Plat / RBC / Ret / WBC: tissue Blood; for KIDNEY_L / KIDNEY_R / KIDNEY_TOTAL: tissue Kidney; for LIVER: tissue Liver; for A/G / ALP / ALT / AST / BUN / CRE / Ca / Cl / DBIL / GLC / IP / K / LDH / Na / PL / RALB / TBIL / TC / TG / TP / gamma-GTP: tissue Plasma

`CCCc1cc(=O)[nH]c(=S)[nH]1` [PROPYLTHIOURACIL] showed a TERMINAL_BW (72 h, time 3 day) of 209.7 g, an APTT (72 h, time 3 day) of 16 s and a Bas (72 h, time 3 day) of 0%. For the same compound, the Eos (72 h, time 3 day) was 0.8%, the Fbg (72 h, time 3 day) was 238.8 mg/dL and the Hb (72 h, time 3 day) was 13.2 g/dL. It also gave a Ht (72 h, time 3 day) of 39.6%, a Lym (72 h, time 3 day) of 80.6% and an MCH (72 h, time 3 day) of 22 pg. It also gave an MCHC (72 h, time 3 day) of 33.3%, an MCV (72 h, time 3 day) of 65.9 fL and a Mono (72 h, time 3 day) of 6.4%. The Neu (72 h, time 3 day) was 12.2%, the PT (72 h, time 3 day) was 12.1 s and the Plat (72 h, time 3 day) was 110 x10_4/uL. It also gave an RBC (72 h, time 3 day) of 601.4 x10_4/ul, a Ret (72 h, time 3 day) of 7.1% and a WBC (72 h, time 3 day) of 144 x10_2/uL. The KIDNEY_L (72 h, time 3 day) was 0.9 g, the KIDNEY_R (72 h, time 3 day) was 0.9 g and the KIDNEY_TOTAL (72 h, time 3 day) was 1.8 g. For the same compound, the LIVER (72 h, time 3 day) was 12.2 g, the A/G (72 h, time 3 day) was 1.7 and the ALP (72 h, time 3 day) was 870.8 IU/L. For the same compound, the ALT (72 h, time 3 day) was 36.4 IU/L, the AST (72 h, time 3 day) was 60.4 IU/L and the BUN (72 h, time 3 day) was 20.2 mg/dL. For the same compound, the CRE (72 h, time 3 day) was 0.5 mg/dL, the Ca (72 h, time 3 day) was 11.5 mg/dL and the Cl (72 h, time 3 day) was 105.4 meq/L. For the same compound, the DBIL (72 h, time 3 day) was 0.008 mg/dL, the GLC (72 h, time 3 day) was 191.6 mg/dL and the IP (72 h, time 3 day) was 7.1 mg/dL. The K (72 h, time 3 day) was 4.5 meq/L, the LDH (72 h, time 3 day) was 181.2 IU/L and the Na (72 h, time 3 day) was 138.6 meq/L. The PL (72 h, time 3 day) was 199.6 mg/dL, the RALB (72 h, time 3 day) was 3.8 g/dL and the TBIL (72 h, time 3 day) was 0.3 mg/dL. It also gave a TC (72 h, time 3 day) of 116.2 mg/dL, a TG (72 h, time 3 day) of 94.2 mg/dL and a TP (72 h, time 3 day) of 6.1 g/dL. It also gave a gamma-GTP (72 h, time 3 day) of 1 IU/L, a TERMINAL_BW ([…], time 7 day) of 223.8 g and a TERMINAL_BW ([…], time 14 day) of 241.1 g. It also gave a TERMINAL_BW ([…], time 28 day) of 232 g, an APTT ([…], time 7 day) of 15.8 s and a Bas ([…], time 7 day) of 0%. For the same compound, the Eos ([…], time 7 day) was 1%, the Fbg ([…], time 7 day) was 239.2 mg/dL and the Hb ([…], time 7 day) was 13.7 g/dL. For the same compound, the Ht ([…], time 7 day) was 41.4%, the Lym ([…], time 7 day) was 81.2% and the MCH ([…], time 7 day) was 20.9 pg. It also gave an MCHC ([…], time 7 day) of 33.1%, an MCV ([…], time 7 day) of 63.2 fL and a Mono ([…], time 7 day) of 5.4%. For the same compound, the Neu ([…], time 7 day) was 12.4%, the PT ([…], time 7 day) was 13 s and the Plat ([…], time 7 day) was 113.5 x10_4/uL. For the same compound, the RBC ([…], time 7 day) was 655.4 x10_4/ul, the Ret ([…], time 7 day) was 3.8% and the WBC ([…], time 7 day) was 123.8 x10_2/uL. The APTT ([…], time 14 day) was 17 s, the Bas ([…], time 14 day) was 0% and the Eos ([…], time 14 day) was 0%. It also gave a Fbg ([…], time 14 day) of 189.4 mg/dL, a Hb ([…], time 14 day) of 14 g/dL and a Ht ([…], time 14 day) of 41.9%. The Lym ([…], time 14 day) was 79.4%, the MCH ([…], time 14 day) was 20.3 pg and the MCHC ([…], time 14 day) was 33.3%. It also gave an MCV ([…], time 14 day) of 61.1 fL, a Mono ([…], time 14 day) of 6.2% and a Neu ([…], time 14 day) of 14.4%. The PT ([…], time 14 day) was 13.9 s, the Plat ([…], time 14 day) was 93.2 x10_4/uL and the RBC ([…], time 14 day) was 686.2 x10_4/ul. The Ret ([…], time 14 day) was 1.6%, the WBC ([…], time 14 day) was 99.7 x10_2/uL and the APTT ([…], time 28 day) was 15.3 s. It also gave a Bas ([…], time 28 day) of 0%, an Eos ([…], time 28 day) of 0.8% and a Fbg ([…], time 28 day) of 180.4 mg/dL. It also gave a Hb ([…], time 28 day) of 15.5 g/dL, a Ht ([…], time 28 day) of 45.8% and a Lym ([…], time 28 day) of 84.6%. The MCH ([…], time 28 day) was 19.6 pg, the MCHC ([…], time 28 day) was 33.8% and the MCV ([…], time 28 day) was 57.9 fL. It also gave a Mono ([…], time 28 day) of 4.8%, a Neu ([…], time 28 day) of 9.8% and a PT ([…], time 28 day) of 14.8 s. It also gave a Plat ([…], time 28 day) of 86 x10_4/uL, an RBC ([…], time 28 day) of 791.8 x10_4/ul and a Ret ([…], time 28 day) of 0.7%. The WBC ([…], time 28 day) was 66.5 x10_2/uL, the KIDNEY_L ([…], time 7 day) was 0.9 g and the KIDNEY_R ([…], time 7 day) was 0.9 g. For the same compound, the KIDNEY_TOTAL ([…], time 7 day) was 1.8 g, the KIDNEY_L ([…], time 14 day) was 0.9 g and the KIDNEY_R ([…], time 14 day) was 0.9 g. The KIDNEY_TOTAL ([…], time 14 day) was 1.9 g, the KIDNEY_L ([…], time 28 day) was 0.8 g and the KIDNEY_R ([…], time 28 day) was 0.8 g. For the same compound, the KIDNEY_TOTAL ([…], time 28 day) was 1.6 g, the LIVER ([…], time 7 day) was 12.7 g and the LIVER ([…], time 14 day) was 12 g. For the same compound, the LIVER ([…], time 28 day) was 9.8 g, the A/G ([…], time 7 day) was 1.8 and the ALP ([…], time 7 day) was 839.6 IU/L. For the same compound, the ALT ([…], time 7 day) was 29.6 IU/L, the AST ([…], time 7 day) was 57.8 IU/L and the BUN ([…], time 7 day) was 20.6 mg/dL. For the same compound, the CRE ([…], time 7 day) was 0.5 mg/dL, the Ca ([…], time 7 day) was 11.5 mg/dL and the Cl ([…], time 7 day) was 106.8 meq/L. It also gave a DBIL ([…], time 7 day) of 0.016 mg/dL, a GLC ([…], time 7 day) of 172 mg/dL and an IP ([…], time 7 day) of 6.8 mg/dL. For the same compound, the K ([…], time 7 day) was 4.5 meq/L, the LDH ([…], time 7 day) was 161.4 IU/L and the Na ([…], time 7 day) was 140.2 meq/L. It also gave a PL ([…], time 7 day) of 166.6 mg/dL, an RALB ([…], time 7 day) of 4.3 g/dL and a TBIL ([…], time 7 day) of 0.3 mg/dL. For the same compound, the TC ([…], time 7 day) was 101.6 mg/dL, the TG ([…], time 7 day) was 79.6 mg/dL and the TP ([…], time 7 day) was 6.7 g/dL. For the same compound, the gamma-GTP ([…], time 7 day) was 1.2 IU/L, the A/G ([…], time 14 day) was 1.8 and the ALP ([…], time 14 day) was 489.4 IU/L. It also gave an ALT ([…], time 14 day) of 27.8 IU/L, an AST ([…], time 14 day) of 56.4 IU/L and a BUN ([…], time 14 day) of 23.4 mg/dL. The CRE ([…], time 14 day) was 0.7 mg/dL, the Ca ([…], time 14 day) was 11.4 mg/dL and the Cl ([…], time 14 day) was 107.4 meq/L. It also gave a DBIL ([…], time 14 day) of 0.016 mg/dL, a GLC ([…], time 14 day) of 176.4 mg/dL and an IP ([…], time 14 day) of 6.3 mg/dL. It also gave a K ([…], time 14 day) of 4 meq/L, an LDH ([…], time 14 day) of 152.8 IU/L and a Na ([…], time 14 day) of 141.8 meq/L. The PL ([…], time 14 day) was 144.8 mg/dL, the RALB ([…], time 14 day) was 4.4 g/dL and the TBIL ([…], time 14 day) was 0.2 mg/dL. It also gave a TC ([…], time 14 day) of 94.2 mg/dL, a TG ([…], time 14 day) of 32.6 mg/dL and a TP ([…], time 14 day) of 7 g/dL. It also gave a gamma-GTP ([…], time 14 day) of 1.6 IU/L, an A/G ([…], time 28 day) of 2 and an ALP ([…], time 28 day) of 528 IU/L. It also gave an ALT ([…], time 28 day) of 34 IU/L, an AST ([…], time 28 day) of 65.4 IU/L and a BUN ([…], time 28 day) of 26.8 mg/dL. It also gave a CRE ([…], time 28 day) of 0.7 mg/dL, a Ca ([…], time 28 day) of 10.8 mg/dL and a Cl ([…], time 28 day) of 108 meq/L. For the same compound, the DBIL ([…], time 28 day) was 0.054 mg/dL, the GLC ([…], time 28 day) was 162 mg/dL and the IP ([…], time 28 day) was 5.5 mg/dL. It also gave a K ([…], time 28 day) of 4.1 meq/L, an LDH ([…], time 28 day) of 121.8 IU/L and a Na ([…], time 28 day) of 143.6 meq/L. It also gave a PL ([…], time 28 day) of 153 mg/dL, an RALB ([…], time 28 day) of 4.5 g/dL and a TBIL ([…], time 28 day) of 0.2 mg/dL. For the same compound, the TC ([…], time 28 day) was 101.2 mg/dL, the TG ([…], time 28 day) was 34.6 mg/dL and the TP ([…], time 28 day) was 6.8 g/dL. The gamma-GTP ([…], time 28 day) was 2.8 IU/L.
